Test results: ChEMBL document CHEMBL6087462, “Cuminaldehyde Potentiates Antiproteolytic Peptide Efficacy via Parallel Pathways of Enhanced Inner Membrane-Damaging Activity and Inhibition of Bacterial Energy Metabolism” (J Med Chem, 2025)

Tests used:
Escherichia coli [1] = assay: Synergistic antimicrobial activity against Escherichia coli K88 assessed as fractional inhibitory concentration index in presence of perillaldehyde by checkerboard broth microdilution assay; assay type: functional
Salmonella typhimurium [2] = assay: Synergistic antimicrobial activity against Salmonella typhimurium 7731 assessed as fractional inhibitory concentration index in presence of carvacrol by checkerboard broth microdilution assay; assay type: functional, Salmonella enterica subsp. enterica serovar Typhimurium
Enterococcus faecalis = assay: Synergistic antimicrobial activity against Enterococcus faecalis 29212 assessed as fractional inhibitory concentration index in presence of citral by checkerboard broth microdilution assay; assay type: functional
Salmonella typhimurium [3] = assay: Synergistic antimicrobial activity against Salmonella typhimurium 14028 assessed as fractional inhibitory concentration index in presence of citral by checkerboard broth microdilution assay; assay type: functional, Salmonella enterica subsp. enterica serovar Typhimurium
Escherichia coli [4] = assay: Antimicrobial activity against Escherichia coli K88 assessed as cuminaldehyde MIC by CLSI based broth microdilution method; assay type: functional
Escherichia coli [5] = assay: Synergistic antimicrobial activity against Escherichia coli 25922 assessed as fractional inhibitory concentration index in presence of citronellal by checkerboard broth microdilution assay; assay type: functional
Staphylococcus aureus [6] = assay: Synergistic antimicrobial activity against Staphylococcus aureus 25923 assessed as fractional inhibitory concentration index in presence of citral by checkerboard broth microdilution assay; assay type: functional
Escherichia coli [7] = assay: Synergistic antimicrobial activity against Escherichia coli K99 assessed as fractional inhibitory concentration index in presence of citral by checkerboard broth microdilution assay; assay type: functional
Escherichia coli [8] = assay: Antimicrobial activity against Escherichia coli K99 assessed as cuminaldehyde MIC by CLSI based broth microdilution method; assay type: functional
Staphylococcus aureus [9] = assay: Synergistic antimicrobial activity against Staphylococcus aureus 43300 assessed as fractional inhibitory concentration index in presence of carvacrol by checkerboard broth microdilution assay; assay type: functional

CC[C@H](C)[C@H](NC(=O)[C@@H](NC(=O)[C@@H](CCCNC(=N)N)NC(=O)[C@H](C)NC(=O)[C@H](C)NC(=O)[C@@H](N)Cc1cccc2ccccc12)[C@@H](C)CC)C(=O)N[C@@H](CC(C)C)C(=O)N[C@H](CCCNC(=N)N)C(=O)N[C@@H](Cc1c[nH]c2ccccc12)C(=O)N[C@H](CCCNC(=N)N)C(=O)N[C@@H](Cc1ccccc1)C(=O)N[C@@H](CCCNC(=N)N)C(=O)O
fractional inhibitory concentration index (FICI) (Escherichia coli [1]): 0.375
fractional inhibitory concentration index (FICI) (Salmonella typhimurium [2]): 0.5
fractional inhibitory concentration index (FICI) (Enterococcus faecalis): 0.375
fractional inhibitory concentration index (FICI) (Salmonella typhimurium [3]): 0.141
MIC (Escherichia coli [4]): 1020 µg/mL
fractional inhibitory concentration index (FICI) (Escherichia coli [5]): 0.25
fractional inhibitory concentration index (FICI) (Staphylococcus aureus [6]): 0.25
fractional inhibitory concentration index (FICI) (Escherichia coli [7]): 0.375
MIC (Escherichia coli [8]): 1020 µg/mL
fractional inhibitory concentration index (FICI) (Staphylococcus aureus [9]): 0.75
